{
  "source": "patent US20240130998A1",
  "about": "“ANALGESIA FROM ORAL PROCAINE A FORGOTTEN VOLTAGE GATED SODIUM CHANNEL BLOCKER” (priority 2023, published 2024)",
  "key": {"[1]": {"assay": "Pharmacokinetics of intravenous procaine", "format": "in vivo", "conditions": "95 mg bolus IV, 70 kg human, calculated", "protocol": "In a 70 kg human, with an average central compartment procaine blood volume of distribution of 0.57 L/kg procaine or 40.0. L, an initial blood level of 2.36 μg/ml is obtained with a 95 mg bolus IV procaine administration.[16]"}, "[2]": {"assay": "Ion trapping effects of charged and uncharged procaine (pH=pKa+log B/BH+)", "text": "As the molecule transits from the blood to neural cytoplasm, procaine becomes more charged and less lipophilic within the cytoplasm of the neuron, and the concentration of the active charge species increases. The charged active species is essentially trapped in the cytoplasm, only being able to exit after hydrolysis to PABA and DEAE or through distribution.\nThe intraneural pH of human dorsal root ganglia is not known, but it is generally accepted that intraneural pH decreases with neural activity. The pH of cervical ganglia of a rodent is reported as 7.30-6.51, and the typical resting or “steady-state” pH within a hippocampal neuron is reported as ˜7.03-7.46,[30]"}, "[3]": {"test_system": "patients with chronic pain", "conditions": "cited from earlier work"}, "[4]": {"test_system": "patients with acute or chronic pain", "conditions": "cited from earlier work"}, "[5]": {"test_system": "dorsal root ganglia neurons", "conditions": "neurons with an abundance of Nav 1.8 channels; cited from earlier work"}, "[6]": {"conditions": "in vivo, iv; cited from earlier work"}, "[7]": {"conditions": "in vivo, po; cited from earlier work"}, "[8]": {"conditions": "cited from earlier work"}, "[9]": {"test_system": "central pore of sodium channels", "conditions": "cited from earlier work"}, "[10]": {"test_system": "procaine induced convulsion", "conditions": "diazepam 0.3 mg/kg intravenous; procaine 100-150 mg/kg intraperitoneally; animal model; cited from earlier work"}, "plasma esterase": {"molecular_target": "plasma esterase (Homo sapiens, UniProt P06276)", "sequence (P06276 29-602)": "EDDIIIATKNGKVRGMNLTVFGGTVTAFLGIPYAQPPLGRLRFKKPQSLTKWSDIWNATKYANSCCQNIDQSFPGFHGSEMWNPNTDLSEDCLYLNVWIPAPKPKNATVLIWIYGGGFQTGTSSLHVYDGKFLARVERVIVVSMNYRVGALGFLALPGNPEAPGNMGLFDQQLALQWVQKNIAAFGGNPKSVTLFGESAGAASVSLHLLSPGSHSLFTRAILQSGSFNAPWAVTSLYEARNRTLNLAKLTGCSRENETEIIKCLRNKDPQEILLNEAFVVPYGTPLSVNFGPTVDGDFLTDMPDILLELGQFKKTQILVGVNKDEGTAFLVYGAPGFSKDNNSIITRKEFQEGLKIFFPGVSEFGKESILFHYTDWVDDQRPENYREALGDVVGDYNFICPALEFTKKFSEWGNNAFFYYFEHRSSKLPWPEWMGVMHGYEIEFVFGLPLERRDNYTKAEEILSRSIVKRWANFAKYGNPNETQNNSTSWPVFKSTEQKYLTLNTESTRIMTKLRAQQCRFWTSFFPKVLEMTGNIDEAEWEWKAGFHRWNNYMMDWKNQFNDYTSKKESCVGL", "conditions": "cited from earlier work"}},
  "note": "Values joined by “and” are separate entries in the source; they are usually repeats but may differ in a detail not shown here. Identical values can stand only once. Like-named read-outs stand apart in the source and are kept apart here.",
  "data": [
    {"molecule": "CCN(CC)CCOC(=O)c1ccc(N)cc1", "note": "[procaine]", "values": [
      {"measurement": "Initial blood level", "setting": "[1]", "result": 2.36, "unit": "µg/mL"},
      {"measurement": "[BH+]/[B]", "setting": "[2]; Blood, pH 7.4", "result": 32},
      {"measurement": "[BH+]/[B]", "setting": "[2]; CSF, pH 7.32", "result": 38},
      {"measurement": "[BH+]/[B]", "setting": "[2]; Ganglia or intraneural, pH 7.30-6.51", "result": "40-245"},
      {"measurement": "[BH+]/[B]", "setting": "[2]; Interstitial, pH 7.4", "result": 32},
      {"measurement": "Predicted intraneural [BH+] relative to blood [BH+]", "setting": "[2]; ion trapping and diminished CSF pseudocholinesterase activity, without Michaelis-Menten kinetics", "result": "≤ 750", "unit": "times"},
      {"measurement": "Factor of increase of [BH+]/[B] from blood to intraneural cytoplasm", "setting": "[2]; ion trapping only", "result": "at least 7.5"},
      {"measurement": "Efficacy (patients successfully treated)", "setting": "[3]; Balfour 1951, oral 80 mg with Metamucil, chronic dysphagia", "result": 8},
      {"measurement": "Efficacy (patients with relief / patients treated)", "setting": "[3]; Beinhauer 1954, oral 3000 mg/day, herpes zoster or burning tongue syndrome", "result": "9/14"},
      {"measurement": "Efficacy (patients with analgesia / patients treated)", "setting": "[3]; Klein 1953, oral 450 mg TID, chronic pain from arthritis", "result": "38/50"},
      {"measurement": "Efficacy (patients with analgesia / patients treated)", "setting": "[3]; Koch 1989, oral 200 mg BID, procaine double salt complex, chronic pain from rheumatoid arthritis", "result": "29/30"},
      {"measurement": "Efficacy (patients with analgesia / patients treated)", "setting": "[3]; Kupperman 1957, oral 1000 mg TID with meals, arthritis", "result": "no analgesia and 0/50"},
      {"measurement": "Efficacy (patients with chronic pain relief / patients treated)", "setting": "[3]; Traut 1952, oral 3000 mg/day in divided doses after meals, arthritis", "result": "5/32"},
      {"measurement": "Relief of pain and discomfort", "setting": "[4]; Betcher, IV, 92 patients, various orthopedic conditions", "result": "adequate relief"},
      {"measurement": "Analgesia", "setting": "[4]; Kahl, IV infusion 2000 mg over 24 hours, acute pancreatic pain", "result": "poor analgesia"},
      {"measurement": "Analgesia", "setting": "[4]; Keats, IV, approximate dose 370 mg, 53 patients, acute post-operative pain", "result": "inadequate analgesia"},
      {"measurement": "Chronic pain relief (patients)", "setting": "[4]; Shanbrom, 500 mg to 1000 mg IV, postherpetic neuralgia", "result": "13/16"},
      {"measurement": "Relief of acute pain", "setting": "[4]; Zeluff, IV 1000 mg, 3 patients, traumatic military injuries", "result": "dramatic relief"},
      {"measurement": "Minimum concentration for block of dorsal root ganglia neurons", "setting": "[5]", "result": 10, "unit": "µM"},
      {"measurement": "Blood level considered therapeutic", "setting": "[6]", "result": 10000, "unit": "ng/mL"},
      {"measurement": "Peak plasma procaine levels", "setting": "[7]", "result": "0.2-3.1 mg percent"}
    ]},
    {"molecule": "CCN(CC)CCO", "note": "[DEAE, diethylaminoethanol]", "values": [
      {"measurement": "pKa", "setting": "[8]", "result": "~10.1"}
    ]},
    {"molecule": "CCNCC(=O)Nc1c(C)cccc1C", "note": "[MEGX, monoethylglycinexylidide]", "values": [
      {"measurement": "Potency relative to the parent drug lidocaine", "setting": "[9]", "result": 80, "unit": "%"}
    ]},
    {"molecule": "CN1C(=O)CN=C(c2ccccc2)c2cc(Cl)ccc21", "note": "[diazepam]", "values": [
      {"measurement": "Effect on procaine induced convulsion", "setting": "[10]", "result": "aborted procaine induced convulsion"}
    ]},
    {"molecule": "Cc1cccc(C)c1NC(=O)CN", "note": "[GX, glycinexylidide]", "values": [
      {"measurement": "Potency relative to the parent drug lidocaine", "setting": "[9]", "result": "nearly ineffective"}
    ]},
    {"molecule": "CCN(CC)CCOC(=O)c1ccc(N)cc1Cl", "note": "[2-chloroprocaine]", "values": [
      {"measurement": "Rate of hydrolysis by plasma esterase relative to procaine", "setting": "plasma esterase", "result": 4, "unit": "×"}
    ]},
    {"molecule": "Nc1ccc(C(=O)O)cc1", "note": "[PABA, para-aminobenzoic acid]", "values": [
      {"measurement": "pKa", "setting": "[8]", "result": "~4.6"}
    ]}
  ]
}
